Test results reported in ChEMBL document CHEMBL3132769, “Fragment growing to retain or alter the selectivity of anchored kinase hinge-binding fragments” (Medchemcomm, 2014).

Experiments:
[1] = biological target: MAP kinase p38 (Homo sapiens) (UniProt O15264+Q15759+Q16539+P53778); test: Inhibition of human full length p38 beta2 expressed in Escherichia coli cell assessed as substrate phosphorylation using fluorescence-labelled peptides as substrate at 0.06 uM after 90 mins by microfluidic peptide phosphorylation assay
Sequence of MAP kinase p38 (Homo sapiens) (P53778 whole entry, looked up, one chain of several): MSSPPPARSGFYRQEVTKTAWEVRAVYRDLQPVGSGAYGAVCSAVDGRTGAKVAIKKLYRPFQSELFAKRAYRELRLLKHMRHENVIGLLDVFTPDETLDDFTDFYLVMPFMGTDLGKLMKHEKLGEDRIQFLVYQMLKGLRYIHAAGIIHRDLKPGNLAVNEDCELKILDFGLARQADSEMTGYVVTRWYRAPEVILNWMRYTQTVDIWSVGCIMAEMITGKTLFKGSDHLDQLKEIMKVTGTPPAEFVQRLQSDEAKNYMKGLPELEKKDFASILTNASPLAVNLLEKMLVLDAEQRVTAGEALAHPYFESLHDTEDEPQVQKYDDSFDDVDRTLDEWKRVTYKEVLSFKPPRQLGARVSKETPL
Sequence of MAP kinase p38 (Homo sapiens) (Q15759 whole entry, looked up, one chain of several): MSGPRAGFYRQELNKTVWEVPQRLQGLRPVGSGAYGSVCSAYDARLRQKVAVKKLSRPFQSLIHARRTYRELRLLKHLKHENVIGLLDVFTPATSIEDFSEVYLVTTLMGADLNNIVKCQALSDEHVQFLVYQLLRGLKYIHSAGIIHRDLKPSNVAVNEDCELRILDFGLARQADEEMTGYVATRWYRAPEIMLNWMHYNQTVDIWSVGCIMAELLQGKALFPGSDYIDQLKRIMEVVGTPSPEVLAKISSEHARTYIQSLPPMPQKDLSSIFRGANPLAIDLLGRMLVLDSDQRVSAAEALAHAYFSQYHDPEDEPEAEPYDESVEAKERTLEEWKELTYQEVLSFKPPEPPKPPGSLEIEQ
Sequence of MAP kinase p38 (Homo sapiens) (Q16539 whole entry, looked up, one chain of several): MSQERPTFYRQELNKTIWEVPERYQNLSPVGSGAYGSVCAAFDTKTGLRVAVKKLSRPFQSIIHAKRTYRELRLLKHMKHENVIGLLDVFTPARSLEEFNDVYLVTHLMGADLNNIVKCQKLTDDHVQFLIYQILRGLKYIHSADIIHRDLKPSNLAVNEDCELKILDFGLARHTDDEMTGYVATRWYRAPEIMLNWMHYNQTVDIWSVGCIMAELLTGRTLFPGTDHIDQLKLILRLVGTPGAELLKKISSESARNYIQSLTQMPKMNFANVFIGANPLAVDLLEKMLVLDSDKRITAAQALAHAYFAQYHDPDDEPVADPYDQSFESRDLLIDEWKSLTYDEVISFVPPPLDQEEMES

[2] = biological target: T1, Mitogen-activated protein kinase 13 (Homo sapiens) (UniProt O15264); test: Inhibition of human full length p38 delta expressed in Escherichia coli cell assessed as substrate phosphorylation using fluorescence-labelled peptides as substrate at 0.06 uM after 90 mins by microfluidic peptide phosphorylation assay
T1 sequence (whole entry): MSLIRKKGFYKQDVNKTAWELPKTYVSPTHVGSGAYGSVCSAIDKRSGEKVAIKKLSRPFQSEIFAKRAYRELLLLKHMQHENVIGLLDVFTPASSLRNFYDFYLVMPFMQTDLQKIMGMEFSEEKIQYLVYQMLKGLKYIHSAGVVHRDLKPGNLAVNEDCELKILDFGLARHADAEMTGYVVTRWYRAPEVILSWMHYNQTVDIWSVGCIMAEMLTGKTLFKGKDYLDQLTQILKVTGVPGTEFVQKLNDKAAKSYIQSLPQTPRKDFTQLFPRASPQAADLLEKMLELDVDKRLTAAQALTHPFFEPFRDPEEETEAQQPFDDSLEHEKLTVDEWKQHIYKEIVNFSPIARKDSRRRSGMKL

[3] = biological target: Protein kinase C alpha type (Homo sapiens) (UniProt P17252); test: Inhibition of human truncated PKC alpha expressed in baculovirus assessed as substrate phosphorylation using fluorescence-labelled peptides as substrate at 420 uM after 90 mins by microfluidic peptide phosphorylation assay
[4] = species on record: Homo sapiens; test: Inhibition of human P70S6K catalytic domain expressed in baculovirus assessed as substrate phosphorylation using fluorescence-labelled peptides as substrate at 9 uM after 90 mins by microfluidic peptide phosphorylation assay
[5] = biological target: Calcium/calmodulin-dependent protein kinase type II subunit delta (Homo sapiens) (UniProt Q13557); test: Inhibition of human full length CAMK2D expressed in baculovirus assessed as substrate phosphorylation using fluorescence-labelled peptides as substrate at 1000 uM after 90 mins by microfluidic peptide phosphorylation assay
Sequence of Calcium/calmodulin-dependent protein kinase type II subunit delta (Homo sapiens) (Q13557 whole entry): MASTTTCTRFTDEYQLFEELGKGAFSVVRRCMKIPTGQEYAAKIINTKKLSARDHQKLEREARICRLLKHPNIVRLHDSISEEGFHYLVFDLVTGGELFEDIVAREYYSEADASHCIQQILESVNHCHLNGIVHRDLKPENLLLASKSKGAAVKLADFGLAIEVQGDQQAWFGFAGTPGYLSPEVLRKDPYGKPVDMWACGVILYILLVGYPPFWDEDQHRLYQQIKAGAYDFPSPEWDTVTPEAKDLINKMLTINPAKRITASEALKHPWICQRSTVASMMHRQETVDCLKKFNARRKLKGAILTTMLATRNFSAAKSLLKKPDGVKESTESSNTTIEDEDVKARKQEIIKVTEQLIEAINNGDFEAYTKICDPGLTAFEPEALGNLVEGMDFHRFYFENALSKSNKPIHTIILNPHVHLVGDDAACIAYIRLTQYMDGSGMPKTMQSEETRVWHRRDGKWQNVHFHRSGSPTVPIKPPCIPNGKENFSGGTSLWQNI

[6] = biological target: T2, Aurora kinase A (Homo sapiens) (UniProt O14965); test: Inhibition of human full length AurA expressed in baculovirus assessed as substrate phosphorylation using fluorescence-labelled peptides as substrate at 8 uM after 90 mins by microfluidic peptide phosphorylation assay
T2 sequence (whole entry): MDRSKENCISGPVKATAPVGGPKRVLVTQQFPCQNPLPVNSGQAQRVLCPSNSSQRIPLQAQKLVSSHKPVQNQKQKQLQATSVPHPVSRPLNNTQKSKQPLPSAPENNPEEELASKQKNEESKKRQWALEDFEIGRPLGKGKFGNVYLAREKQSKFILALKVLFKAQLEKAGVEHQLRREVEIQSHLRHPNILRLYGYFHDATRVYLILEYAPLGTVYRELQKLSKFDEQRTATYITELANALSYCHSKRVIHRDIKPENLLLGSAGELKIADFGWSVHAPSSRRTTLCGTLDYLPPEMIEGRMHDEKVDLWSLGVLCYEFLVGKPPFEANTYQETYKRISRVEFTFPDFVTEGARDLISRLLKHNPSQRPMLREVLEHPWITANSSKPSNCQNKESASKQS

[7] = biological target: Tyrosine-protein kinase Fer (Homo sapiens) (UniProt P16591); test: Inhibition of human FER catalytic domain expressed in baculovirus assessed as substrate phosphorylation using fluorescence-labelled peptides as substrate at 8 uM after 90 mins by microfluidic peptide phosphorylation assay
Sequence of Tyrosine-protein kinase Fer (Homo sapiens) (P16591 whole entry, looked up, the tested form may be a part): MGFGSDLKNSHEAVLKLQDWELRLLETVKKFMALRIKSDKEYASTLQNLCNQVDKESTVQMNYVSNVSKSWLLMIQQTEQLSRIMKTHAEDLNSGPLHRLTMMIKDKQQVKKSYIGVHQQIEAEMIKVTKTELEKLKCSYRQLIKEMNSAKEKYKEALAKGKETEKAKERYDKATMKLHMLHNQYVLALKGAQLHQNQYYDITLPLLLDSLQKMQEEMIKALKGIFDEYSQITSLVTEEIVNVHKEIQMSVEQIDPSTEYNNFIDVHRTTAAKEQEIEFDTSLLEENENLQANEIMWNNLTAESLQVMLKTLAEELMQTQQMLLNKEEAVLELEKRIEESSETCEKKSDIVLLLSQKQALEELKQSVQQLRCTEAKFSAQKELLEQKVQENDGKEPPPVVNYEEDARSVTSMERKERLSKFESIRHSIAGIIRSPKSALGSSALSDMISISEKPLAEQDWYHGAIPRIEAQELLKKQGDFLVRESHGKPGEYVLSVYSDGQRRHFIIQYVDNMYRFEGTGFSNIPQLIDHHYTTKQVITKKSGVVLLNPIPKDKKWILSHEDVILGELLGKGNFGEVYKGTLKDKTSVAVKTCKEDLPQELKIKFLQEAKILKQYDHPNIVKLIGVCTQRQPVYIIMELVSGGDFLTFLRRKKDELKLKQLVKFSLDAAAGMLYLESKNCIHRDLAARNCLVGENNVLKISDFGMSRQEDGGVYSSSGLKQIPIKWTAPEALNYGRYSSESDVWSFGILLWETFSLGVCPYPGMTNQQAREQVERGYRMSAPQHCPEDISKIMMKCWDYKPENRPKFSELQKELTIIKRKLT

[8] = biological target: T3, Inhibitor of nuclear factor kappa-B kinase subunit beta (Homo sapiens) (UniProt O14920); test: Inhibition of human full length IKK beta expressed in baculovirus assessed as substrate phosphorylation using fluorescence-labelled peptides as substrate at 0.1 uM after 90 mins by microfluidic peptide phosphorylation assay
T3 sequence (whole entry): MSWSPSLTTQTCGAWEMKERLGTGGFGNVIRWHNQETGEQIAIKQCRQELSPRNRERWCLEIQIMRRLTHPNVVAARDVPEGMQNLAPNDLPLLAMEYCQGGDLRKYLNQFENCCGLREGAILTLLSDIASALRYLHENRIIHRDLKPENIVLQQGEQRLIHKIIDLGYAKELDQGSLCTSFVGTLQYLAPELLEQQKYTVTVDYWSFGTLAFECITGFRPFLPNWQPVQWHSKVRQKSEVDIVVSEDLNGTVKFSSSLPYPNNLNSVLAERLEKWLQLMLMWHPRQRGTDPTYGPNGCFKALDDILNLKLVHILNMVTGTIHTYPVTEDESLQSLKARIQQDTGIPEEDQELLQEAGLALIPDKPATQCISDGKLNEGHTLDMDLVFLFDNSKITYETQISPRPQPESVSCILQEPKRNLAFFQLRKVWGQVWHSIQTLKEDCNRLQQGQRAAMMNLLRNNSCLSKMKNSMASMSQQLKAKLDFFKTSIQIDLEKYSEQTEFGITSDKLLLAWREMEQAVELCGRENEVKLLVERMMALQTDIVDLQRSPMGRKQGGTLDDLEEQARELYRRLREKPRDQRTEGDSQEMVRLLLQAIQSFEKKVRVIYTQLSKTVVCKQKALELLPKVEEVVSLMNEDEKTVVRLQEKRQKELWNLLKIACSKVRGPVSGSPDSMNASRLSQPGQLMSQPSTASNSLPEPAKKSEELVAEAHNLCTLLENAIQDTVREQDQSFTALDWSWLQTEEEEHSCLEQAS

## NC1(Cc2ccc(Cl)cc2)CCN(c2ncnc3[nH]ccc23)CC1
[1]
  inhibition: 9%
[2]
  inhibition: 0%

## c1nc(N2CCOCC2)c2nc[nH]c2n1
[3]
  inhibition: 64.5%

## NCC1CN(c2ncnc3[nH]c4cnccc4c23)CCO1 (stereo not drawn)
[4]
  inhibition: 14.5%

## c1cnc2[nH]ccc2c1
[5]
  inhibition: 37.5%

## NCC1CCN(c2ncnc3[nH]ccc23)CC1
[6]
  inhibition: 87.5%
[7]
  inhibition: 1.5%

## C[C@H](CN(C)C)Oc1nc(Nc2cc3cccc(Cl)c3cn2)cnc1C#N
[8]
  inhibition: 3.5%
